Laboratory results from ChEMBL document CHEMBL1955728, “3,5-Disubstituted indole derivatives as selective human neuronal nitric oxide synthase (nNOS) inhibitors” (Bioorg Med Chem Lett, 2012).
Active and inactive are the calls of the source. The rule behind the calls is not given here.

Columns and labels:
[1] = target: Nitric oxide sythases; iNOS & nNOS (Homo sapiens) (UniProt P29475+P35228); assay: Selectivity ratio of IC50 for human iNOS to IC50 for human nNOS
Homo sapiens = species: Homo sapiens; assay: Selectivity ratio of IC50 for human eNOS to IC50 for human nNOS
Nitric oxide synthase 1 [2] = target: Nitric oxide synthase 1 (Homo sapiens, UniProt P29475); assay: Inhibition of human nNOS expressed in baculovirus infected insect Sf9 cells assessed as conversion of [3H]-L-arginine to [3H]-L-citrulline
Nitric oxide synthase 1 (Homo sapiens, UniProt P29475), sequence (P29475 whole entry): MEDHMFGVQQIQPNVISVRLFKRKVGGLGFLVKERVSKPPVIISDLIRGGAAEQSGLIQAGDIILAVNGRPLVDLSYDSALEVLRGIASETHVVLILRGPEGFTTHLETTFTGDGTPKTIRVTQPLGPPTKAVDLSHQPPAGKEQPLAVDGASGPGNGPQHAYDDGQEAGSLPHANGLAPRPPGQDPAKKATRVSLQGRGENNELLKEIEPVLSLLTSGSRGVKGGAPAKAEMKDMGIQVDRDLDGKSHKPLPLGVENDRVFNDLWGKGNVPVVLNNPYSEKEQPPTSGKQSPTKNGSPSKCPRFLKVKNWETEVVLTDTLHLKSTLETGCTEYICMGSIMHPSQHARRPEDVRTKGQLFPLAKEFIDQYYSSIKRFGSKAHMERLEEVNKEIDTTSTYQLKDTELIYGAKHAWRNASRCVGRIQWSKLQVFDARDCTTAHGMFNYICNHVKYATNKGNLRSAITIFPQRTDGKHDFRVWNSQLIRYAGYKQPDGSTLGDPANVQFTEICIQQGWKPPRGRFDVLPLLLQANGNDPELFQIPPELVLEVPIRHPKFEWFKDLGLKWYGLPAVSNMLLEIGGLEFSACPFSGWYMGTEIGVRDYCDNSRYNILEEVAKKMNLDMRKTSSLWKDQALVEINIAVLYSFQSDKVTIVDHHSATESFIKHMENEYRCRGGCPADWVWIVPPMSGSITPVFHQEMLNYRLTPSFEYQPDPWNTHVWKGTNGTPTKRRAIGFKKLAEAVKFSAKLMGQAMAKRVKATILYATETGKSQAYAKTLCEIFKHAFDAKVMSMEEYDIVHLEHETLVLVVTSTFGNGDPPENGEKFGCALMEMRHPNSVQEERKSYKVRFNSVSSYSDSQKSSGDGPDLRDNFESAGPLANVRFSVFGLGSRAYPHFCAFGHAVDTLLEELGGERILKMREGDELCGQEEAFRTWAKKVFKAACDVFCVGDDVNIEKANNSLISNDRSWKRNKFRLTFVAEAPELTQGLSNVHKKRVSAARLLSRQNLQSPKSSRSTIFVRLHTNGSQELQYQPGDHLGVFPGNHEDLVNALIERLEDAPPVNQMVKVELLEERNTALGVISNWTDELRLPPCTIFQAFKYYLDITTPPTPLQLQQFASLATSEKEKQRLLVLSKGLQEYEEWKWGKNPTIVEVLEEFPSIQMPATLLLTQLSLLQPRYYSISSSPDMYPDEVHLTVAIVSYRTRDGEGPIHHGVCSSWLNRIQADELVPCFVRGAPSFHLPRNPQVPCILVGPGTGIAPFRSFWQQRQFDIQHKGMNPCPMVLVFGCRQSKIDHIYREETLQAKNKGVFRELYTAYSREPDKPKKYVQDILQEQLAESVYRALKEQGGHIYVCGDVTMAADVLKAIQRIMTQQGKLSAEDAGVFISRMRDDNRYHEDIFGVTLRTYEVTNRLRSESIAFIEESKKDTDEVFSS

Nitric oxide synthase 3 = target: T1, Nitric oxide synthase 3 (Homo sapiens, UniProt P29474); assay: Inhibition of human eNOS expressed in baculovirus infected insect Sf9 cells assessed as conversion of [3H]-L-arginine to [3H]-L-citrulline
T1 sequence (P29474 whole entry): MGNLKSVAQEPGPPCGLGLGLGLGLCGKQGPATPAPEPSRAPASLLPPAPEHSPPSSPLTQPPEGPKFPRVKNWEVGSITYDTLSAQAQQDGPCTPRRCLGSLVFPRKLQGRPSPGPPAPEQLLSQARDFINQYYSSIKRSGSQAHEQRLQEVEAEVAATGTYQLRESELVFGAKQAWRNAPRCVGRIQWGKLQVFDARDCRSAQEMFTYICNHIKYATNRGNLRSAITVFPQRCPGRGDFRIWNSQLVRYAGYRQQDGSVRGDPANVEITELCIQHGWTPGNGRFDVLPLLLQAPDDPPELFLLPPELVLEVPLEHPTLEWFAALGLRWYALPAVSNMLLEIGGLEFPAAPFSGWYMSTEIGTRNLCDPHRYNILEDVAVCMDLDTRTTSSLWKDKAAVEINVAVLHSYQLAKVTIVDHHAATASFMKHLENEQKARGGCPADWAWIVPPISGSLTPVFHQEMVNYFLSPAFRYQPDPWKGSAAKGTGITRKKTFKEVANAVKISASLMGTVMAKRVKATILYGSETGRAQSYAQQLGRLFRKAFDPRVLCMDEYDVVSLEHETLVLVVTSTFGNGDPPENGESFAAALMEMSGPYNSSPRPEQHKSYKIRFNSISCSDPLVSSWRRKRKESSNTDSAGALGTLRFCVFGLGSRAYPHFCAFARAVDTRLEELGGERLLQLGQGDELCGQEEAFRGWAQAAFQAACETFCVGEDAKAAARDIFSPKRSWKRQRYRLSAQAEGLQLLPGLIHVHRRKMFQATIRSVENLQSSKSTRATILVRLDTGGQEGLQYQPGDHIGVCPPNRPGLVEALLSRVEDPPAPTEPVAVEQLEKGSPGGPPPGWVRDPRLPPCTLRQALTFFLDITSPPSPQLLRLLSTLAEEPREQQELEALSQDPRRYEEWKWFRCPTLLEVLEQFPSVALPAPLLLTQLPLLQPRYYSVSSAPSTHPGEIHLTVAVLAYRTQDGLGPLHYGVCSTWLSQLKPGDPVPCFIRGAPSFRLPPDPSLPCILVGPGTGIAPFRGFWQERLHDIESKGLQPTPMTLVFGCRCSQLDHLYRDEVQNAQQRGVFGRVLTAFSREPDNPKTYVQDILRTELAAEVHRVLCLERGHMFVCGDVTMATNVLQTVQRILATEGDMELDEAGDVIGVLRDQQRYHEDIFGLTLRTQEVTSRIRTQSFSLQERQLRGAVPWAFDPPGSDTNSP

[3] = target: Nitric oxide synthase, inducible (Homo sapiens, UniProt P35228); assay: Inhibition of human iNOS expressed in baculovirus infected insect Sf9 cells assessed as conversion of [3H]-L-arginine to [3H]-L-citrulline
Nitric oxide synthase, inducible, sequence (P35228 whole entry): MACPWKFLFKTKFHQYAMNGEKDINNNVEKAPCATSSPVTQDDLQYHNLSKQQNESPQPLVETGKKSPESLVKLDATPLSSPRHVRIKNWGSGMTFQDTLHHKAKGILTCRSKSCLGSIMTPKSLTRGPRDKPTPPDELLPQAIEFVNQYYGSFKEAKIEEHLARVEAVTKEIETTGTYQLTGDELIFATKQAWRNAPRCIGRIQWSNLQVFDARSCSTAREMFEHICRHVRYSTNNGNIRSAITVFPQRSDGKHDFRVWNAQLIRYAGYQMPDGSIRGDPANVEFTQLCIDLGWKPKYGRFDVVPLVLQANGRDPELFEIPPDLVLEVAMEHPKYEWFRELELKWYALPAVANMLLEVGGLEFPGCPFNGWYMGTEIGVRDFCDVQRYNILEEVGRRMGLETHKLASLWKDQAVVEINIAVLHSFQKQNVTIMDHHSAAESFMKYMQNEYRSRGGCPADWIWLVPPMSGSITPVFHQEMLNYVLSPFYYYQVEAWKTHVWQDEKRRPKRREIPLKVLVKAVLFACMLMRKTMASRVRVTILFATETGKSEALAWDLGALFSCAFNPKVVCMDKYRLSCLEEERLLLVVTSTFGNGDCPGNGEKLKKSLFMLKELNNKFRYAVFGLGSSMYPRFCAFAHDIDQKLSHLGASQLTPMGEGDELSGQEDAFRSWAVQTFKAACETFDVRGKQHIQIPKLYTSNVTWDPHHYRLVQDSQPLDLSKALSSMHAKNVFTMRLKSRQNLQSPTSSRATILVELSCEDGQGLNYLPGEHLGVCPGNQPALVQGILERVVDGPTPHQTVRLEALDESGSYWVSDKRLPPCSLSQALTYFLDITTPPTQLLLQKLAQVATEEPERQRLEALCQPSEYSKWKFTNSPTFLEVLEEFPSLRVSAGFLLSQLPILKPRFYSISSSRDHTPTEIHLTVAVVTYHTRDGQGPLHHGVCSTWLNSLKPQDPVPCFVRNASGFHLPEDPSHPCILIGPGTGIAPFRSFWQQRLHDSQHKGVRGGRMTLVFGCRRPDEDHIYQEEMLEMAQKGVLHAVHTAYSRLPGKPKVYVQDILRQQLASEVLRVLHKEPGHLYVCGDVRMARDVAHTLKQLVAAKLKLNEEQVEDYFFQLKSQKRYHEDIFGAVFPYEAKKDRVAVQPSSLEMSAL

Cytochrome P450 2D6 = Cytochrome P450 2D6 (Homo sapiens, UniProt P10635); assay: Inhibition of human CYP2D6; type: ADME
Cytochrome P450 3A4 = Cytochrome P450 3A4 (Homo sapiens, UniProt P08684); assay: Inhibition of human CYP3A4; type: ADME
Cytochrome P450 3A4, sequence (P08684 whole entry): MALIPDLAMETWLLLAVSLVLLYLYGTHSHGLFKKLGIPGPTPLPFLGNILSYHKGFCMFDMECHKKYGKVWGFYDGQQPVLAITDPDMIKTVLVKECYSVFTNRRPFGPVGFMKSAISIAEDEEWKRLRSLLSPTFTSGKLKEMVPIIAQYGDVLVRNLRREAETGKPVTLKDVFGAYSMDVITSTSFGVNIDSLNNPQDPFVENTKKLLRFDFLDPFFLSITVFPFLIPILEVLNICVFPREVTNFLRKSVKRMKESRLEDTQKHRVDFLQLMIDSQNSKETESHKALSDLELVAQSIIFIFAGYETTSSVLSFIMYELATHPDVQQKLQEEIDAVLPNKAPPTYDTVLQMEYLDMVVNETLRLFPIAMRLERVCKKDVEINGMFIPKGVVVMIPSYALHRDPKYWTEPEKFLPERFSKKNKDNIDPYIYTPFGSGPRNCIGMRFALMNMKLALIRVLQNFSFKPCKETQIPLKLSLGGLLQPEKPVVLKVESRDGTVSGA

Rattus norvegicus [4] = assay: Antihyperalgesic activity in rat L5/L6 SNL model of neuropathic pain assessed as reversal of thermal hyperalgesia at 10 mg/kg, ip measured after 30 mins; type: functional; conditions: route intraperitoneal
Cytochrome P450 2C19 = Cytochrome P450 2C19 (Homo sapiens, UniProt P33261); assay: Inhibition of human CYP2C19; type: ADME
[5] = Vasoconstrictive activity in human arteries assessed as inhibition of acetylcholine-induced vasorelaxation at 10 uM in presence of thromboxane A2 mimetic agent U46619; type: tissue-based, Artery
Cytochrome P450 1A2 = target: T2, Cytochrome P450 1A2 (Homo sapiens, UniProt P05177); assay: Inhibition of human CYP1A2; type: ADME
T2 sequence (P05177 whole entry): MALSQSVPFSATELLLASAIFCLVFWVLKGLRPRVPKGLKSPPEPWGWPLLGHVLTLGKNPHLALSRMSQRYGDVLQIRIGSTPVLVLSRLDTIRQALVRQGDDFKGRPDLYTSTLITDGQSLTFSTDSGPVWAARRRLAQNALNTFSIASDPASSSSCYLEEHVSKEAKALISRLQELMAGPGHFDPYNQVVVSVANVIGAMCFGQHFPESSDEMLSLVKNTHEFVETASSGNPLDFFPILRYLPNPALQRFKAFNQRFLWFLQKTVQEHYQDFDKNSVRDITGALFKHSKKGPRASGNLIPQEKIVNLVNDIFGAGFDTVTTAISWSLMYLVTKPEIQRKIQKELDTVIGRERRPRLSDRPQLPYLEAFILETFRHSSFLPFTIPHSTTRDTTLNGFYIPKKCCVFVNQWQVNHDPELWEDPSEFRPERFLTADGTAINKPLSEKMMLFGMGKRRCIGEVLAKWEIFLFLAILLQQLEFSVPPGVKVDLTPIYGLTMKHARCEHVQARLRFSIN

Cytochrome P450 2C9 = Cytochrome P450 2C9 (Homo sapiens, UniProt P11712); assay: Inhibition of human CYP2C9; type: ADME
Cytochrome P450 2C9, sequence (P11712 whole entry): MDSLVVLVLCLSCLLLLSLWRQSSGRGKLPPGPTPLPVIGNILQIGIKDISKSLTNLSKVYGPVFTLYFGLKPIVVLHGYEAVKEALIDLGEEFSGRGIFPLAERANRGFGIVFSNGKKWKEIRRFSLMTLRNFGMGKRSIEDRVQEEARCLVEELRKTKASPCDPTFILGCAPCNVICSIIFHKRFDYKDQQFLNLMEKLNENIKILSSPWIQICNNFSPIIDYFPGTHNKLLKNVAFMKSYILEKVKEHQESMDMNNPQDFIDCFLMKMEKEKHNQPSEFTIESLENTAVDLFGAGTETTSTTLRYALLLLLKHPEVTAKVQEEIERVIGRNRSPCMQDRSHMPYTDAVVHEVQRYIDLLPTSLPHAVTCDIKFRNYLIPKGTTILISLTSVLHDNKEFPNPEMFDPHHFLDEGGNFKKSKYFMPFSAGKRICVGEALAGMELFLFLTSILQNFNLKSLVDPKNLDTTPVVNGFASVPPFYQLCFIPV

Nitric oxide synthase 1 [6] = target: Nitric oxide synthase 1 (Rattus norvegicus, UniProt P29476); assay: Inhibition of rat nNOS
Nitric oxide synthase 1 (Rattus norvegicus, UniProt P29476), sequence (P29476 whole entry): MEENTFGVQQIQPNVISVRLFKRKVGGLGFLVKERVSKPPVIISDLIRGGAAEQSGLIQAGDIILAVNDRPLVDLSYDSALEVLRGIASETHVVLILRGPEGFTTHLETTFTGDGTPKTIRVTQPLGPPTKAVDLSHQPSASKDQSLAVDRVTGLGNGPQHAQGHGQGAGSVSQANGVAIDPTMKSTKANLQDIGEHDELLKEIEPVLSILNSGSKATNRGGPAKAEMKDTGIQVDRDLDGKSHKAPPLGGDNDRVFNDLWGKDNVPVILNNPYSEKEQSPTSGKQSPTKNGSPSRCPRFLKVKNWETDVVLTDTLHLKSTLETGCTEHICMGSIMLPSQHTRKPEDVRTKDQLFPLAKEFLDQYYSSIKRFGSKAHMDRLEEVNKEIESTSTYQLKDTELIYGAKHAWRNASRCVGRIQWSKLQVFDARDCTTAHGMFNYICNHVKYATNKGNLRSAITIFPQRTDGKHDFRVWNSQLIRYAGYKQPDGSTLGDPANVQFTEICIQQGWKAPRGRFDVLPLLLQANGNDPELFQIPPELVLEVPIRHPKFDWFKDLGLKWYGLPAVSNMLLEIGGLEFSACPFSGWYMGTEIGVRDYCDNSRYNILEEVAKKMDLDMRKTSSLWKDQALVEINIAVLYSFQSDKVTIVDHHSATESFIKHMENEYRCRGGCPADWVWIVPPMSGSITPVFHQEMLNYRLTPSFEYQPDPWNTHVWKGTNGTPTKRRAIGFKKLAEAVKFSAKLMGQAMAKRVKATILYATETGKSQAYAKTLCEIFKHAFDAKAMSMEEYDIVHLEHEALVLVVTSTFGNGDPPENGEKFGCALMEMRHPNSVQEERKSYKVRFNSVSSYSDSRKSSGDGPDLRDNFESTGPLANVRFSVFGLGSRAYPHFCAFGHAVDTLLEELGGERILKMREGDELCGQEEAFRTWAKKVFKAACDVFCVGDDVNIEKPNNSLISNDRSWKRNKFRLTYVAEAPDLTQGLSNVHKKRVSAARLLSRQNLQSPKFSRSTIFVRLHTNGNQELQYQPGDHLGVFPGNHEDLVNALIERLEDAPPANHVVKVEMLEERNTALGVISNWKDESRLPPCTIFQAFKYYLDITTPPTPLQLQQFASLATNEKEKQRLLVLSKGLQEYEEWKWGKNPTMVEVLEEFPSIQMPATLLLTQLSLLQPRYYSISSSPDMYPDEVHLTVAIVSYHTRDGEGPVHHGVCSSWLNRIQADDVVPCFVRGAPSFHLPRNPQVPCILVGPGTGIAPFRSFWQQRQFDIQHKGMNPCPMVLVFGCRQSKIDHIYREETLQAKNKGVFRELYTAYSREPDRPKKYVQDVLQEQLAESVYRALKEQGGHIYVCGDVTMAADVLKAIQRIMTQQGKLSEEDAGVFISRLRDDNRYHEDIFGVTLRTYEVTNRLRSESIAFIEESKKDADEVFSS

Rattus norvegicus [7] = assay: Antihyperalgesic activity in rat L5/L6 SNL model of neuropathic pain assessed as reversal of thermal hyperalgesia at 10 mg/kg, ip measured after 30 to 120 mins; type: functional, organism-based; set-up: dose 10 mg/kg

Nitric oxide sythases; iNOS & nNOS (Homo sapiens), sequence (P29475 whole entry, looked up): as the sequence (P29475 whole entry) above
Nitric oxide sythases; iNOS & nNOS (Homo sapiens), sequence (P35228 whole entry, looked up): as the sequence (P35228 whole entry) above

SMILES	Ratio IC50 [1]	Ratio IC50 (Homo sapiens)	IC50 (Nitric oxide synthase 1 [2]) [µM]	IC50 (Nitric oxide synthase 3) [µM]	other results
CN1CCC(c2c[nH]c3ccc(/N=C(\N)c4ccco4)cc23)CC1	48	43			
CN1CC=C(c2c[nH]c3ccc(/N=C(\N)c4cccs4)cc23)CC1	105	118			
CCS/C(N)=N/c1ccc2[nH]cc(C3=CCN(C)CC3)c2c1		22			
CN1CCC(c2c[nH]c3ccc(/N=C(\N)c4cccs4)cc23)CC1	57				
CN1CCC(c2c[nH]c3ccc(NC(=N)c4ccccc4)cc23)CC1		14	18	249	
CN1CCC(c2c[nH]c3ccc(NC(=N)c4ccco4)cc23)CC1					IC50 [3]: 108 µM
Cc1ccc(C(=N)Nc2ccc3[nH]cc(C4=CCN(C)CC4)c3c2)s1		6	10.4	65.3	
CN1CC=C(c2c[nH]c3ccc(NC(=S)NC(=O)c4ccccc4)cc23)CC1		3			
CS/C(N)=N/c1ccc2[nH]cc(C3=CCN(C)CC3)c2c1	8	16			
CN1CC=C(c2c[nH]c3ccc(NC(=N)c4ccco4)cc23)CC1.Cl.Cl			0.55	36.1	IC50 (Cytochrome P450 2D6): 20.5 µM; IC50 (Cytochrome P450 3A4): > 100 µM; Activity (Rattus norvegicus [4]): 94%; IC50 (Cytochrome P450 2C19): > 100 µM; IC50 [5]: Not Active; IC50 (Cytochrome P450 1A2): 9.52 µM; IC50 (Cytochrome P450 2C9): > 100 µM; IC50 (Nitric oxide synthase 1 [6]): 2.6 µM
CN1CC=C(c2c[nH]c3ccc(C/N=C(\N)c4cccs4)cc23)CC1	66	50			
CN1CC=C(c2c[nH]c3ccc(CNC(=N)c4cccs4)cc23)CC1			1.29	64.7	
CN1CCC(c2c[nH]c3ccc(NC(=N)c4cccs4)cc23)CC1			1.02	24.2	
CN1CC=C(c2c[nH]c3ccc(NC(=N)c4cccs4)cc23)CC1			0.19	22.4	IC50 (Nitric oxide synthase 1 [6]): 2.3 µM
CN1CC=C(c2c[nH]c3cc(NC(=N)c4cccs4)ccc23)CC1	15	33			
CN1CC=C(c2c[nH]c3ccc(/N=C(\N)c4ccco4)cc23)CC1	106	66			Activity (Rattus norvegicus [7]): Active
CSC(=N)Nc1ccc2[nH]cc(C3=CCN(C)CC3)c2c1					IC50 [3]: 17.1 µM
